Read-outs that look alike come from different tables or passages of the source.

In patent US9962341B2, “Active pharmaceutical ingredient (API) comprising cannabinoids for use in the treatment of cancer” (GW Pharma Limited, priority 2014, dated 2018) one finds IC50 data, which are given here for 7 molecules.

Type in all cases: cell-based
One assay has as its system A549. Kind of assay: Cell viability (CellTiter-Blue, 72 h), A549 lung cancer cells. Conditions: Homo sapiens. The protocol: (§1) The following cell lines were tested in this example: Lung Cancer (A549, NCI-H460); Pancreatic cancer (PANC1, Mia-Pa-Ca-2); Melanoma (WM115, A375); Ovarian cancer (OVCAR3, SKOV3); Gastric cancer (MKN45, HGC-27); Renal cancer (ACHN) and Bladder Cancer (RT112).
(§2) Each tumour cell line was maintained in vitro in RPMI 1640+10% heat inactivated FBS and 2 mM L-glutamine (growth media) at 37° C. in 5% CO2 and humidified conditions. The cells were harvested, washed, re-suspended into growth medium and counted. The cells were re-suspended into assay media (RPMI 1640+5% heat inactivated FBS+ and 2 mM L-glutamine) at 4×10^4 cells/ml (dependent upon cell type) and plated into the middle 240 wells of 384 well tissue culture plates (Corning CellBind, black-wall plates) 25 μl/well aliquots; 50 μl of growth media was aliquoted into the outer wells. There were 3 plates for each cell line.
(§3) The plates were incubated overnight at 37° C., in 5% humidified CO2.
(§4) The phytocannabinoid test compounds were prepared in 100% DMSO vehicle at a stock concentration of 20 and 40 mM.
(§5) Starting with the 20 mM stock in DMSO, this was serially diluted (2 fold) in DMSO in a 96-well plate, to 20 (no dilution), 10, 5, 2.5, 1.25, 0.625, 0.315, 0.157 and […]. Following this, 10 ul of each compound dilution was diluted into 990 ul of 1% (v/v) FBS media in a deep well block making the final concentrations of 200, 100, 50, 25, 12.5, 6.25, 3.125, 1.56 and 0.79 μM (2× final assay concentrations and 1% DMSO).
(§6) An equal volume of each cannabinoid in the combination (stock concentration 40 mM) was mixed together to make a stock of 20 mM of each cannabinoid in DMSO. This was serially diluted (2 fold) in DMSO in a 96-well plate, to 20 (no dilution), 10, 5, 2.5, 1.25, 0.625, 0.315, 0.157 and […]. Following this, 10 ul of each combination dilution was diluted into 990 ul of 1% (v/v) FBS media in a deep well block making the final concentrations of 200, 100, 50, 25, 12.5, 6.25, 3.125, 1.56 and 0.79 μM (2× final assay concentrations and 1% DMSO).
(§7) Taxotere SOC was prepared in 100% DMSO to give a stock concentration of 10 mM. This was diluted in DMSO from the stock solution to 200 μM, then serially diluted (3-fold) in DMSO to 200 (no dilution), 66.66, 22.22, 7.41, 2.47, 0.82, 0.27, 0.09, 0.03 μM. 10 ul of each of the taxotere dilutions was diluted in 990 ul of 1% (v/v) FBS media making the final concentrations of 2, 0.67, 0.22, 0.074, 0.0247, 0.0082, 0.0027 0.0009, 0.0003 μM (2× final assay concentrations and 1% DMSO).
(§8) The plates were incubated for 72 h at 37° C. in 5% humidified CO2. To develop the plates, at 72 h, 10 μl of CellTiter-Blue™ reagent was added to each test/blank well.
(§9) The plates were incubated at 37° C., 5% humidified CO2. Fluorescence was measured using a Flex II Station plate reader (570 nm excitation wavelength, 600 nm emission wavelength, 590 nm cut-off) after 3 h.
(§10) The phytocannabinoid compounds CBD, CBGA, CBG, CBDA, THCV and THC were tested on a panel of lung (A549, NCI-H460), pancreatic (PANC1, Mia-Pa-Ca-2), melanoma (WM115, A375), ovarian (OVCAR3, SKOV3), gastric (MKN45, HGC-27), renal (ACHN) and bladder (RT112) cancer cell lines according to the protocol for 72 h in media containing 1% FBS.
(§11) The IC50 values for each phytocannabinoid and combination of CBD with the other phytocannabinoids was calculated for each cell line. The raw data values expressed in relative fluorescent units were normalised to the vehicle for each individual plate and any reduction in fluorescence indicated a decrease in viability.
(§12) This calculation was as described in Example 1 above.
A general note: The colour change of resazurin is a common sign of viable cells or microbes.

In the next assay the test system is A375. Kind of assay: Cell viability (CellTiter-Blue, 72 h), A375 melanoma cells. Conditions: Homo sapiens, A-375, A375, 1% FBS. As to the method:
as §1, §2, §3, §4, §5, §6
(§13) Cisplatin (stock of 1 mg/ml=3.33 mM in water) was diluted in 1% FBS media to give a stock concentration of 1 mM. This was then diluted in 1% FBS media from the stock solution to 200 μM, then serially diluted (3-fold) in 1% FBS media to 200 (no dilution), 66.66, 22.22, 7.41, 2.47, 0.82, 0.27, 0.09, 0.03 μM (2× final assay concentrations; no DMSO).
as §8, §9, §10, §11, §12

A further assay deals with Mia-Pa-Ca-2. Kind of assay: Cell viability (CellTiter-Blue, 72 h), Mia-Pa-Ca-2 pancreatic cancer cells. Conditions: Homo sapiens. The protocol: as §1, §2, §3, §4, §5, §6
Gemcitabine SOC was prepared in 100% DMSO to give a stock concentration of 20 mM. This was then serially diluted (3 fold) in DMSO in a 96-well plate, to 20 (no dilution), 6.6, 2.2, 0.741, 0.247, 0.082, 0.027, 0.009 and 0.003 mM. Following this, 10 ul of each dilution was further diluted into 990 ul of 1% (v/v) FBS media making the final concentrations of 200 (no dilution), 66.66, 22.22, 7.41, 2.47, 0.82, 0.27, 0.09, 0.03 μM (2× final assay concentrations and 1% DMSO).
as §8, §9, §10, §11, §12

A further assay concerns ACHN. Description: Cell viability (CellTiter-Blue, 72 h), ACHN renal cancer cells. Conditions: Homo sapiens. The protocol:
as §1, §2, §3, §4, §5, §6, §7, §8, §9, §10, §11, §12

For another assay, the system named is RT112. Description: Cell viability (CellTiter-Blue, 72 h), RT112 bladder cancer cells. Conditions: Homo sapiens, RT-112. As to the method:
as §1, §2, §3, §4, §5, §6, §13, §8, §9, §10, §11, §12

[1] abbreviates: A549, 72 h, read-out: Cell line IC50 value.
[2] abbreviates: A549, read-out: Dm (median effect dose).
The mark [3] stands for this setting: 72 h, read-out: Cell line IC50 value.
[4] abbreviates: read-out: Dm (median effect dose).
The mark [5] stands for this setting: MIA PaCa-2, 72 h, read-out: Cell line IC50 value.
Where [6] appears, read: MIA PaCa-2, read-out: Dm (median effect dose).
Setting [7] is: read-out: Dm (potency, median effect).
Where [8] appears, read: RT112, 1% FBS, 72 h, read-out: Cell line IC50 value.
[9] abbreviates: RT112 cells, 1% FBS, read-out: Dm (potency, median effect).

Turning to `CCCCCc1cc(O)c(C/C=C(\C)CCC=C(C)C)c(O)c1` [CBG, Cannabigerol], the IC50 in the assay with A549 (setting [1]) was 4.3 µM; in the assay on A549 (setting [2]), 4.23 µM; in the assay with A375 (setting [3]), 2.1 µM; with A375 (setting [4]) it was 1.89 µM; in the assay with Mia-Pa-Ca-2 (setting [5]), 2.2 µM; in the assay on Mia-Pa-Ca-2 (setting [6]), 2.06 µM. Also, the IC50 is 3 µM with ACHN (setting [3]), 2.96 µM in the assay with ACHN (setting [7]), 2.5 µM with RT112 (setting [8]) and 2.14 µM in the assay on RT112 (setting [9]).
Take `C=C(C)[C@@H]1CCC(C)=C[C@H]1c1c(O)cc(CCCCC)c(C(=O)O)c1O` [CBDA, Cannabidiolic acid]: the IC50 in the assay on A549 (setting [1]) is 8.5 µM; in the assay on A549 (setting [2]), 7.6 µM; in the assay with A375 (setting [3]) it was 10.2 µM; with A375 (setting [4]), 9.78 µM; in the assay on Mia-Pa-Ca-2 (setting [5]), 7.9 µM; in the assay with Mia-Pa-Ca-2 (setting [6]) it was 7.09 µM. Also, the IC50 worked out at 10.7 µM with ACHN (setting [3]), 8.44 µM in the assay with ACHN (setting [7]), 8.2 µM in the assay on RT112 (setting [8]) and 6.36 µM in the assay on RT112 (setting [9]).
Consider `C=C(C)[C@@H]1CCC(C)=C[C@H]1c1c(O)cc(CCCCC)cc1O` [CBD, Cannabidiol], for which the IC50 with A549 (setting [1]) came to 3.2 µM; with A549 (setting [2]), 2.87 µM; in the assay with A375 (setting [3]) it was 2.9 µM; with A375 (setting [4]), 2.66 µM; in the assay with Mia-Pa-Ca-2 (setting [5]), 2.6 µM; in the assay on Mia-Pa-Ca-2 (setting [6]), 2 µM. Besides, the IC50 in the assay on ACHN (setting [3]) was found to be 3.3 µM; with ACHN (setting [7]) it was 3.11 µM; with RT112 (setting [8]) it was 2 µM; with RT112 (setting [9]) it was 1.79 µM.
As to `CCCCCc1cc(O)c(C/C=C(\C)CCC=C(C)C)c(O)c1C(=O)O` [CBGA, Cannabigerolic acid], the IC50 in the assay with A549 (setting [1]) came out at 6.1 µM; with A549 (setting [2]) it was 6.89 µM; with A375 (setting [3]), 7.3 µM; with A375 (setting [4]) it was 6.66 µM; with Mia-Pa-Ca-2 (setting [5]), 8.9 µM; in the assay with Mia-Pa-Ca-2 (setting [6]), 8.67 µM. Moreover, the IC50 with ACHN (setting [3]) is 11.6 µM; in the assay on ACHN (setting [7]), 12 µM; with RT112 (setting [8]) it was 9.8 µM; in the assay with RT112 (setting [9]), 9.72 µM.
For `CC(=O)O[C@@]12CO[C@@H]1C[C@H](O)[C@@]1(C)C(=O)[C@H](O)C3=C(C)[C@@H](OC(=O)[C@H](O)[C@@H](NC(=O)OC(C)(C)C)c4ccccc4)C[C@@](O)([C@@H](OC(=O)c4ccccc4)[C@H]21)C3(C)C` [Taxotere, Docetaxel, reference compound], the IC50 in the assay with A549 (setting [1]) worked out at 0.0006 µM; with ACHN (setting [3]) it was 0.0018 µM.
For `CCCc1cc(O)c2c(c1)OC(C)(C)[C@@H]1CCC(C)=C[C@@H]21` [THCV, Tetrahydrocannabivarin], the IC50 in the assay with A549 (setting [1]) amounted to 7.4 µM; in the assay on A549 (setting [2]) it was 6.59 µM; in the assay on A375 (setting [3]) it was 5 µM; in the assay on A375 (setting [4]), 5.54 µM; with Mia-Pa-Ca-2 (setting [5]), 5.2 µM; in the assay with Mia-Pa-Ca-2 (setting [6]) it was 4.79 µM. Further, the IC50 with ACHN (setting [3]) turned out to be 6.8 µM; in the assay with ACHN (setting [7]), 6.76 µM; with RT112 (setting [8]), 4.7 µM; with RT112 (setting [9]), 4.75 µM.
`CCCCCc1cc(O)c2c(c1)OC(C)(C)[C@@H]1CCC(C)=C[C@@H]21` [THC, Tetrahydrocannabinol, reference compound]: the IC50 with A549 (setting [1]) came to 5.5 µM; in the assay with A549 (setting [2]), 4.08 µM; in the assay on A375 (setting [3]) it was 2.7 µM; in the assay on A375 (setting [4]) it was 2.47 µM; in the assay with Mia-Pa-Ca-2 (setting [5]) it was 2.9 µM; in the assay on Mia-Pa-Ca-2 (setting [6]), 2.64 µM. The IC50 was 3.6 µM in the assay with ACHN (setting [3]), 4.4 µM with ACHN (setting [7]), 3.6 µM with RT112 (setting [8]) and 3.09 µM in the assay with RT112 (setting [9]).
